Results as given in ChEMBL document CHEMBL3885861, “Open TG-GATES”.

Species on record: Rattus norvegicus
Experiment: Open TG-GATES - Regimen: Single
Format: toxicity, organism-based, Sprague-Dawley
Set-up: regimen Single, gender Male, age 6 weeks
Conditions: in vivo, po, 0 mg/kg, route gavage, dose level Control; for APTT / Bas / Eos / Fbg / Hb / Ht / Lym / MCH / MCHC / MCV / Mono / Neu / PT / Plat / RBC / Ret / WBC: tissue Blood; for KIDNEY_L / KIDNEY_R / KIDNEY_TOTAL: tissue Kidney; for LIVER: tissue Liver; for A/G / ALP / ALT / AST / BUN / CRE / Ca / Cl / DBIL / GLC / IP / K / LDH / Na / PL / RALB / TBIL / TC / TG / TP / gamma-GTP: tissue Plasma

Work on `CC[C@H]1[C@@H]2C[C@H]3[C@@H]4N(C)c5ccccc5[C@]45C[C@@H]([C@@H]2[C@H]5O)N3[C@@H]1O` [AJMALINE] yielded a TERMINAL_BW (3 h) of 194.6 g, an APTT (3 h) of 16.6 s and a Bas (3 h) of 0%. It also gave an Eos (3 h) of 1%, a Fbg (3 h) of 202.8 mg/dL and a Hb (3 h) of 12.8 g/dL. It also gave a Ht (3 h) of 39.1%, a Lym (3 h) of 80.2% and an MCH (3 h) of 21.8 pg. The MCHC (3 h) was 32.9%, the MCV (3 h) was 66.3 fL and the Mono (3 h) was 6.8%. It also gave a Neu (3 h) of 12.2%, a PT (3 h) of 11.6 s and a Plat (3 h) of 109.9 x10_4/uL. The RBC (3 h) was 589.2 x10_4/ul, the Ret (3 h) was 12.5% and the WBC (3 h) was 94.6 x10_2/uL. For the same molecule, the KIDNEY_L (3 h) was 0.9 g, the KIDNEY_R (3 h) was 0.9 g and the KIDNEY_TOTAL (3 h) was 1.9 g. It also gave an LIVER (3 h) of 9.4 g, an A/G (3 h) of 2.5 and an ALP (3 h) of 879.4 IU/L. The ALT (3 h) was 34.6 IU/L, the AST (3 h) was 66.8 IU/L and the BUN (3 h) was 10.6 mg/dL. The CRE (3 h) was 0.4 mg/dL, the Ca (3 h) was 11.4 mg/dL and the Cl (3 h) was 100.8 meq/L. The DBIL (3 h) was 0.04 mg/dL, the GLC (3 h) was 191.4 mg/dL and the IP (3 h) was 9.5 mg/dL. The K (3 h) was 4.4 meq/L, the LDH (3 h) was 95.4 IU/L and the Na (3 h) was 137.2 meq/L. For the same molecule, the PL (3 h) was 149 mg/dL, the RALB (3 h) was 3.7 g/dL and the TBIL (3 h) was 0.3 mg/dL. For the same molecule, the TC (3 h) was 82.4 mg/dL, the TG (3 h) was 69.4 mg/dL and the TP (3 h) was 5.3 g/dL. It also gave a gamma-GTP (3 h) of 2 IU/L, a TERMINAL_BW (6 h) of 192.3 g and an APTT (6 h) of 16.9 s. The Bas (6 h) was 0%, the Eos (6 h) was 1.2% and the Fbg (6 h) was 196.2 mg/dL. For the same molecule, the Hb (6 h) was 13 g/dL, the Ht (6 h) was 39.5% and the Lym (6 h) was 73.4%. The MCH (6 h) was 21.5 pg, the MCHC (6 h) was 32.8% and the MCV (6 h) was 65.3 fL. For the same molecule, the Mono (6 h) was 10.6%, the Neu (6 h) was 15% and the PT (6 h) was 11.6 s. It also gave a Plat (6 h) of 113.8 x10_4/uL, an RBC (6 h) of 605.4 x10_4/ul and a Ret (6 h) of 10.6%. The WBC (6 h) was 102.3 x10_2/uL, the KIDNEY_L (6 h) was 0.9 g and the KIDNEY_R (6 h) was 0.9 g. The KIDNEY_TOTAL (6 h) was 1.7 g, the LIVER (6 h) was 8.3 g and the A/G (6 h) was 2.2. For the same molecule, the ALP (6 h) was 832.4 IU/L, the ALT (6 h) was 34.6 IU/L and the AST (6 h) was 61.8 IU/L. It also gave a BUN (6 h) of 9.6 mg/dL, a CRE (6 h) of 0.5 mg/dL and a Ca (6 h) of 10.7 mg/dL. The Cl (6 h) was 103.4 meq/L, the DBIL (6 h) was 0.042 mg/dL and the GLC (6 h) was 187 mg/dL. It also gave an IP (6 h) of 10 mg/dL, a K (6 h) of 4.8 meq/L and an LDH (6 h) of 72.6 IU/L. The Na (6 h) was 138.8 meq/L, the PL (6 h) was 133.2 mg/dL and the RALB (6 h) was 3.5 g/dL. The TBIL (6 h) was 0.4 mg/dL, the TC (6 h) was 83.6 mg/dL and the TG (6 h) was 64.8 mg/dL. The TP (6 h) was 5.2 g/dL, the gamma-GTP (6 h) was 1.6 IU/L and the TERMINAL_BW (9 h) was 192.7 g. The APTT (9 h) was 17.8 s, the Bas (9 h) was 0% and the Eos (9 h) was 1%. The Fbg (9 h) was 199.4 mg/dL, the Hb (9 h) was 12.7 g/dL and the Ht (9 h) was 38.6%. For the same molecule, the Lym (9 h) was 79.6%, the MCH (9 h) was 22.2 pg and the MCHC (9 h) was 32.9%. For the same molecule, the MCV (9 h) was 67.5 fL, the Mono (9 h) was 7.8% and the Neu (9 h) was 11.6%. The PT (9 h) was 12.3 s, the Plat (9 h) was 114.2 x10_4/uL and the RBC (9 h) was 573.2 x10_4/ul. For the same molecule, the Ret (9 h) was 9.6%, the WBC (9 h) was 93.3 x10_2/uL and the KIDNEY_L (9 h) was 0.9 g. It also gave a KIDNEY_R (9 h) of 0.9 g, a KIDNEY_TOTAL (9 h) of 1.8 g and an LIVER (9 h) of 8.2 g. The A/G (9 h) was 2.4, the ALP (9 h) was 800.8 IU/L and the ALT (9 h) was 32.6 IU/L. It also gave an AST (9 h) of 63 IU/L, a BUN (9 h) of 12.2 mg/dL and a CRE (9 h) of 0.6 mg/dL. The Ca (9 h) was 10.4 mg/dL, the Cl (9 h) was 104.6 meq/L and the DBIL (9 h) was 0.064 mg/dL. For the same molecule, the GLC (9 h) was 190.4 mg/dL, the IP (9 h) was 10.4 mg/dL and the K (9 h) was 4.9 meq/L. It also gave an LDH (9 h) of 82 IU/L, a Na (9 h) of 138.2 meq/L and a PL (9 h) of 126.4 mg/dL. The RALB (9 h) was 3.7 g/dL, the TBIL (9 h) was 0.3 mg/dL and the TC (9 h) was 74.6 mg/dL. The TG (9 h) was 42.8 mg/dL, the TP (9 h) was 5.2 g/dL and the gamma-GTP (9 h) was 0.8 IU/L. It also gave a TERMINAL_BW (24 h) of 206.2 g, an APTT (24 h) of 16.5 s and a Bas (24 h) of 0%. For the same molecule, the Eos (24 h) was 0.8%, the Fbg (24 h) was 211.2 mg/dL and the Hb (24 h) was 12.6 g/dL. The Ht (24 h) was 38.2%, the Lym (24 h) was 75% and the MCH (24 h) was 21.6 pg. It also gave an MCHC (24 h) of 33.1%, an MCV (24 h) of 65.4 fL and a Mono (24 h) of 8.4%. It also gave a Neu (24 h) of 15.6%, a PT (24 h) of 11.5 s and a Plat (24 h) of 106.9 x10_4/uL. For the same molecule, the RBC (24 h) was 584.2 x10_4/ul, the Ret (24 h) was 10.1% and the WBC (24 h) was 107.2 x10_2/uL. The KIDNEY_L (24 h) was 0.9 g, the KIDNEY_R (24 h) was 0.9 g and the KIDNEY_TOTAL (24 h) was 1.8 g. For the same molecule, the LIVER (24 h) was 10.2 g, the A/G (24 h) was 2.1 and the ALP (24 h) was 885.6 IU/L. The ALT (24 h) was 38.6 IU/L, the AST (24 h) was 66.4 IU/L and the BUN (24 h) was 16.8 mg/dL. It also gave a CRE (24 h) of 0.6 mg/dL, a Ca (24 h) of 11 mg/dL and a Cl (24 h) of 102.6 meq/L. It also gave a DBIL (24 h) of 0.026 mg/dL, a GLC (24 h) of 202.2 mg/dL and an IP (24 h) of 8.4 mg/dL. The K (24 h) was 4.6 meq/L, the LDH (24 h) was 86.8 IU/L and the Na (24 h) was 140.6 meq/L. The PL (24 h) was 146.8 mg/dL, the RALB (24 h) was 3.6 g/dL and the TBIL (24 h) was 0.3 mg/dL. The TC (24 h) was 81 mg/dL, the TG (24 h) was 103 mg/dL and the TP (24 h) was 5.4 g/dL. For the same molecule, the gamma-GTP (24 h) was 1.2 IU/L.
